Results taken from publication PMC9321663, “The DevTox Germ Layer Reporter Platform: An Assay Adaptation of the Human Pluripotent Stem Cell Test” (Toxics, 2022).
Counter-ions that a name gives are not always drawn. Like-named read-outs stand apart in the source and are kept apart here.

Experiments:
[1] = test system: SOX2 (ectoderm and pluripotency marker) in RUES2-GLR cells; experiment: DevTox GLR-Endo assay: increase in percent SOX2-positive cells (AEID 3095, Sox2_up); conditions: for MAX_MEAN: tcpl plot AEID3095, maximum mean response; for MAX_MED: tcpl plot AEID3095, maximum median response
[2] = test system: SOX17 in H9 human ESC line; conditions: SOX17 half-maximal inhibition concentration; read-out: hPST IC50; cited from earlier work
[3] = test system: SOX17 (endoderm marker) in RUES2-GLR cells; experiment: DevTox GLR-Endo assay: decrease in percent SOX17-positive cells (AEID 3094, Sox17_dn); conditions: for hit call designation (in words): DevTox GLR-Endo prediction against developmental toxicant classification; for Hit Call: Table S2, SOX17-positive cells, cutoff 3*bmad; for DevTox ACC: Table S2, percent SOX17-positive cells; for HIT−CALL: tcpl plot AEID3094, COFF 20.3
Summary of the method: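 RUES2-GLR cells under endoderm differentiation exposed to test chemicals for 48 h in total, with 0.2% DMSO solvent control and SB431542 (1 µM) as developmental-toxicant control. Endpoints: decrease in total cell count and in percent SOX17-positive cells; n = 4 biological replicates minimum.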

[4] = cited from earlier work; for Development Toxicant Classification: Table S2; for Classification: developmental toxicant classification (Teratogen / Non-Teratogen) of reference and training chemicals, ref DOI per chemical: 10.1093/toxsci/kft239, 10.1093/toxsci/kfaa014, 10.1177/026119290203000204, 10.1038/s41598-020-59542-x; for DT Class.: developmental toxicant classification; for Developmental Toxicant Classification: reference chemicals
[5] = test system: SOX17 (endoderm marker) in RUES2-GLR cells; experiment: DevTox GLR-Endo assay: increase in percent SOX17-positive cells (AEID 3093, Sox17_up); format: cell-based, human; conditions: for Emax: Homo sapiens; for HIT−CALL: tcpl plot AEID3093, COFF 20.3
Description: (§1) The total test chemical incubation period was 48 h.
(§2) (Supplementary Materials).

[6] = test system: BRA (mesoderm marker) in RUES2-GLR cells; experiment: DevTox GLR-Endo assay: increase in percent BRA-positive cells (AEID 3096, Bra_up); format: cell-based, human; conditions: for HIT−CALL: tcpl plot AEID3096, COFF 0.774; for MAX_MEAN: tcpl plot AEID3096, maximum mean response; for MAX_MED: tcpl plot AEID3096, maximum median response
Description: as §1, §2

RUES2-GLR cells = experiment: DevTox GLR-Endo assay: decrease in total cell count, cytotoxicity (AEID 3098, CellCount_dn); conditions: for Emax: Homo sapiens, read-out: Cell Count % Max Inhibition
in vitro = conditions: human
H9 human ESC line = conditions: cited from earlier work
[7] = Homo sapiens, 48 h, read-out: DevTox-GLR Endo AC50 (µM), SOX17 half-maximal activity concentration, 48 h exposure
[8] = Homo sapiens, read-out: DevTox % Max Inhibition
[9] = Homo sapiens, read-out: MAX_MEAN
[10] = Homo sapiens, read-out: MAX_MED
[11] = Homo sapiens, read-out: ga (winning model), tcpl plot AEID3094, gain parameter of winning curve fit (log concentration, µM axis), hit calls only (converted)
[12] = Homo sapiens, read-out: tp (winning model)
[13] = tcpl plot AEID3093, maximum mean response, read-out: MAX_MEAN
[14] = tcpl plot AEID3093, maximum median response, read-out: MAX_MED
[15] = cytotoxicity half-maximal concentration
[16] = RUES2-GLR cells under directed endoderm differentiation
[17] = chemicals common with quickPredict

In the case of `O=C(c1ccc(F)cc1)C1CCN(CCn2c(=O)[nH]c3ccccc3c2=O)CC1` [Ketanserin], the MAX_MEAN [1] is listed as 1.16 Percent Activity, the MAX_MED [1] is listed as 1.15 Percent Activity and the IC50 [2] is listed as over 200 µM. For the same compound, the “hit call designation (in words)” value [3] was “false positive”, the AC50 [3, 7] was 36.6 µM and the Emax [3, 8] was 33.3%. The Emax [3, 9] was 36.9%, the Emax [3, 10] was 33.3% and the AC50 [3, 11] was 36.3 µM. The Emax [3, 12] was 31.8%, the “Hit Call” value [3] was “Positive” and the “DevTox ACC” value ([3]; 48 h exposure) was 39.2719 µM. The “HIT−CALL” value [3] was 1, the “Development Toxicant Classification” value [4] was “Negative” and the Classification [4] was “Non-Teratogen”. For the same compound, the “DT Class.” value ([4]; chemicals common with hPST) was “Neg”, the Emax [5, 13] was 5.18% and the Emax [5, 14] was 5.62%. For the same compound, the “HIT−CALL” value [5] was 0, the “HIT−CALL” value [6] was 0 and the MAX_MEAN [6] was 1.82 Percent Activity. For the same compound, the MAX_MED [6] was 2.05 Percent Activity, the Emax (RUES2-GLR cells) was 68.7% and the “Cell Count ACC” value (RUES2-GLR cells; human, 48 h) was 33.5346 µM. For the same compound, the CC50 at 48 h (in vitro) was 57.5 µM, the “hPST TC50” value (H9 human ESC line; [15]) was over 200 µM and the “hPST TC50” value (H9 human ESC line; hPST cytotoxicity) was over 200 µM.
In the case of `Oc1cc(O)c2c(c1)O[C@H](c1ccc(O)c(O)c1)[C@@H](O)C2` [Cianidanol], the MAX_MEAN [1] is given as 0.447 Percent Activity, the MAX_MED [1] is given as 0.456 Percent Activity and the IC50 [2] is given as 97 µM. For the same compound, the “SOX17 ACC relative to cytotoxic concentration (in words)” value [3] was “below cytotoxic concentrations”, the “hit call designation (in words)” value [3] was “false positive” and the AC50 [3, 7] was 93 µM. The Emax [3, 8] was 39.8%, the Emax [3, 9] was 39.3% and the Emax [3, 10] was 39.8%. For the same compound, the AC50 [3, 11] was 93.3 µM, the Emax [3, 12] was 39.4% and the “Hit Call” value [3] was “Positive”. The “DevTox ACC” value ([3]; 48 h exposure) was 93.5186 µM, the AC50 ([3]; read-out: DevTox-GLR Endo AC50, SOX17 half-maximal activity concentration, 48 h exposure) was 92.9 µM and the “HIT−CALL” value [3] was 1. For the same compound, the “Development Toxicant Classification” value [4] was “Negative”, the “DT Class.” value ([4]; chemicals common with hPST) was “Neg” and the Emax [5, 13] was 6.18%. For the same compound, the Emax [5, 14] was 7.45%, the “HIT−CALL” value [5] was 0 and the “HIT−CALL” value [6] was 0. For the same compound, the MAX_MEAN [6] was 1.32 Percent Activity, the MAX_MED [6] was 1.37 Percent Activity and the Emax (RUES2-GLR cells) was 29.6%. For the same compound, the “Cell Count ACC” value (RUES2-GLR cells; human, 48 h) was 180.189 µM, the CC50 at 48 h (in vitro; [16]) was 194 µM and the “hPST TC50” value (H9 human ESC line; [15]) was 200 µM. For the same compound, the “hPST TC50” value (H9 human ESC line; hPST cytotoxicity) was 200 µM.
In the case of `CC(=O)Oc1ccccc1C(=O)O` [Aspirin], the MAX_MEAN [1] is listed as 0.503 Percent Activity, the MAX_MED [1] is listed as 0.512 Percent Activity and the IC50 [2] is listed as over 200 µM. The AC50 [3, 7] was over 200 µM, the Emax [3, 8] was 12.4% and the Emax [3, 9] was 13.1%. The Emax [3, 10] was 12.4%, the “Hit Call” value [3] was “Negative” and the “DevTox ACC” value ([3]; 48 h exposure) was over 200 µM. The “HIT−CALL” value [3] was 0, the “Development Toxicant Classification” value [4] was “Negative” and the Classification [4] was “Non-Teratogen”. The “DT Class.” value ([4]; chemicals common with hPST) was “Neg”, the “DT Class.” value [4, 17] was “Neg” and the “Developmental Toxicant Classification” value [4] was “Negative”. For the same compound, the Emax [5, 13] was -3.36%, the Emax [5, 14] was -3.07% and the “HIT−CALL” value [5] was 0. For the same compound, the “HIT−CALL” value [6] was 1, the MAX_MEAN [6] was 1.04 Percent Activity and the MAX_MED [6] was 1.03 Percent Activity. For the same compound, the Emax (RUES2-GLR cells) was 2.85%, the “Cell Count ACC” value (RUES2-GLR cells; human, 48 h) was over 200 µM and the CC50 at 48 h (in vitro; [16]) was over 200 µM. For the same compound, the “hPST TC50” value (H9 human ESC line; [15]) was over 200 µM and the “hPST TC50” value (H9 human ESC line; hPST cytotoxicity) was over 200 µM.
For `O=C(O)c1cccnc1` [Niacin, Nicotinic acid], the MAX_MEAN [1] is listed as 0.611 Percent Activity, the MAX_MED [1] is listed as 0.561 Percent Activity and the IC50 [2] is listed as over 200 µM. It also gave an AC50 [3, 7] of over 200 µM, an Emax [3, 8] of 6.06% and an Emax [3, 9] of 5.21%. For the same compound, the Emax [3, 10] was 6.06%, the “Hit Call” value [3] was “Negative” and the “HIT−CALL” value [3] was 0. For the same compound, the “Development Toxicant Classification” value [4] was “Negative”, the Classification [4] was “Non-Teratogen” and the “DT Class.” value ([4]; chemicals common with hPST) was “Neg”. The Emax [5, 13] was 11.3%, the Emax [5, 14] was 11.4% and the “HIT−CALL” value [5] was 0. For the same compound, the “HIT−CALL” value [6] was 0, the MAX_MEAN [6] was 0.818 Percent Activity and the MAX_MED [6] was 0.865 Percent Activity. For the same compound, the Emax (RUES2-GLR cells) was 10.8%, the “Cell Count ACC” value (RUES2-GLR cells; human, 48 h) was over 200 µM and the CC50 at 48 h (in vitro) was over 200 µM. For the same compound, the “hPST TC50” value (H9 human ESC line; [15]) was over 200 µM and the “hPST TC50” value (H9 human ESC line; hPST cytotoxicity) was over 200 µM.
For `[H]/N=C(/NCCCCC)N/N=C/c1c[nH]c2ccc(OC)cc12` [Tegaserod Maleate], the MAX_MEAN [1] is listed as 2.78 Percent Activity, the MAX_MED [1] is listed as 2.79 Percent Activity and the IC50 [2] is listed as 4.6 µM. The “hit call designation (in words)” value [3] was “false positive”, the AC50 [3, 7] was 5.32 µM and the Emax [3, 8] was 102%. The Emax [3, 9] was 102%, the Emax [3, 10] was 102% and the AC50 [3, 11] was 5.32 µM. The Emax ([3]; Homo sapiens, read-out: maximum observed effect level class (% max inhibition)) was 80 to 100%, the Emax [3, 12] was 102% and the “Hit Call” value [3] was “Positive”. The “DevTox ACC” value ([3]; 48 h exposure) was 4.472 µM, the “HIT−CALL” value [3] was 1 and the “Development Toxicant Classification” value [4] was “Negative”. For the same compound, the Classification [4] was “Non-Teratogen”, the “DT Class.” value ([4]; chemicals common with hPST) was “Neg” and the Emax [5, 13] was 6.89%. The Emax [5, 14] was 6.94%, the “HIT−CALL” value [5] was 0 and the “HIT−CALL” value [6] was 1. It also gave an MAX_MEAN [6] of 3.57 Percent Activity, an MAX_MED [6] of 2.57 Percent Activity and an Emax (RUES2-GLR cells) of 98.8%. The “Cell Count ACC” value (RUES2-GLR cells; Table S2, 48 h exposure) was 4.239 µM, the CC50 at 48 h (in vitro; [16]) was 5.06 µM and the “hPST TC50” value (H9 human ESC line; [15]) was 4.5 µM. The “hPST TC50” value (H9 human ESC line; hPST cytotoxicity) was 4.5 µM.
In the case of `O=C1NS(=O)(=O)c2ccccc21` [Saccharin], the MAX_MEAN [1] is given as 0.945 Percent Activity, the MAX_MED [1] is given as 0.563 Percent Activity and the IC50 [2] is given as over 400 µM. The AC50 [3, 7] was over 200 µM, the Emax [3, 8] was 13% and the Emax [3, 9] was 11%. The Emax [3, 10] was 13%, the “Hit Call” value [3] was “Negative” and the “DevTox ACC” value ([3]; 48 h exposure) was over 200 µM. For the same compound, the “HIT−CALL” value [3] was 0, the “Development Toxicant Classification” value [4] was “Negative” and the Classification [4] was “Non-Teratogen”. The “DT Class.” value ([4]; chemicals common with hPST) was “Neg”, the “DT Class.” value [4, 17] was “Neg” and the “Developmental Toxicant Classification” value [4] was “Negative”. For the same compound, the Emax [5, 13] was 10.2%, the Emax [5, 14] was 10.9% and the “HIT−CALL” value [5] was 0. The “HIT−CALL” value [6] was 0, the MAX_MEAN [6] was 1.1 Percent Activity and the MAX_MED [6] was 1.04 Percent Activity. For the same compound, the Emax (RUES2-GLR cells) was 17.9%, the “Cell Count ACC” value (RUES2-GLR cells; human, 48 h) was over 200 µM and the CC50 at 48 h (in vitro) was over 200 µM. The “hPST TC50” value (H9 human ESC line; [15]) was over 400 µM and the “hPST TC50” value (H9 human ESC line; hPST cytotoxicity) was over 400 µM.
